Laboratory results published in US10758609B2, “Cross-reactive T-cell epitopes of HIV, SIV, and FIV for vaccines in humans and cats” (priority 2015, dated 2020).

Columns and labels:
[1] = tested on: PBMC from FIV-vaccinated cats; assay: Feline IFNγ ELISpot of PBMC from vaccinated cats; assay type: cell-based, cat; settings: for IFNγ production: pilot study, pre-challenge; for IFNγ response rate: MAP Trial 2
[2] = tested on: feline CD3^+CD8^+ T cells; assay: CFSE-based feline CD3+CD8+ T-cell proliferation; parameters: species or system cat; settings: FIV-vaccinated cats; for CD8, frequency of responders: FIV epitope peptide; for CD8^+ T (T-cell proliferation), frequency of responders: FIV peptides
In short: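 CFSE-labelled PBMCs (2.5×10^5) from cats stimulated 5 days at 37 °C with peptides or overlapping peptide pools at 4 μg/mL each. Proliferating CD3+CD4+ and CD3+CD8+ cells gated by flow. Media/control values subtracted; positive threshold ≥1 CFSE^low (≥0.5 CFSE^low in vaccine trial).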

[3] = FIV epitope peptide, FIV-vaccinated cats
[4] = FIV peptides, FIV-vaccinated cats (prototype dual-subtype vaccine)

Sequence | IFNγ, frequency of responders [1, 3] | IFNγ, frequency of responders [1, 4] | CD8, frequency of responders [2] | CD8^+ T (T-cell proliferation), frequency of responders [2] | IFNγ production ([1]; cat OCA) [SFU] | IFNγ production ([1]; cat SBA) [SFU] | IFNγ response rate ([1]; 6 weeks post-3rd vaccination) [%] | IFNγ response rate ([1]; SQ and ID MAP-vaccinated cats, 6 weeks post-2nd vaccination) [%]
AGLRQSLEQYQVVKQ [FSU4] | +++ (41%-54% (+++)) | +++ (40.1%-54% (+++)) | +++ (41%-54% (+++)) | +++ (40.1%-54% (+++)) |  |  |  | 
KFLYTAFAMQELR [FTM4-3] | ++++ (>54% (++++)) | ++++ (>54% (++++)) | ++ (26%-40% (++)) | ++ (25.1%-40% (++)) |  |  |  | 
KKKSGKWRMLIDFRV [FRT3-3] |  | ± (1.5%-12.4% (±)) | +++ (41%-54% (+++)) | +++ (40.1%-54% (+++)) |  |  |  | 
LLLILCLPTLVDCIRN [FTM8(20)] | ++ (26%-40% (++)) | ++ (25.1%-40% (++)) | ++++ (>54% (++++)) | ++++ (>54% (++++)) |  |  |  | 
PTDMATLIMAAPGCA [Fp4-3] | ++ (26%-40% (++)) | ++ (25.1%-40% (++)) | + (12.5%-25% (+)) | + (12.5%-25% (+)) | 161 | 60 |  | 
WRMLIDFRVLNKL [FRT3-4] | ++ (26%-40% (++)) | ++ (25.1%-40% (++)) | +++ (41%-54% (+++)) | +++ (40.1%-54% (+++)) |  |  | 64.3 | 14.3
